In ChEMBL document CHEMBL2169878 (J Med Chem, 2012):

What was measured:
[1] = Cytotoxicity against human HepG2 cells after 24 hrs by neutral red dye uptake assay; type: cell-based; settings: read-out: TC50
[2] = tested on: Salmonella typhimurium; assay: Mutagenicity against Salmonella typhimurium TA98 assessed as revertants at 32 uM incubated for 90 mins followed by drug washout measured after 2 days relative to positive control; type: toxicity, organism-based; settings: salmonella enterica subsp. enterica serovar typhimurium, 1.5 h
[3] = tested on: Salmonella typhimurium; assay: Mutagenicity against Salmonella typhimurium TA100 assessed as revertants at 32 uM incubated for 90 mins followed by drug washout measured after 2 days relative to positive control; type: toxicity, organism-based; settings: salmonella enterica subsp. enterica serovar typhimurium
[4] = tested on: Salmonella typhimurium; assay: Mutagenicity against Salmonella typhimurium TA100 assessed as revertants at 2 uM incubated for 90 mins followed by drug washout measured after 2 days relative to positive control; type: toxicity, organism-based; settings: salmonella enterica subsp. enterica serovar typhimurium
[5] = molecular target: T1, Chloroquine resistance transporter (Plasmodium falciparum) (UniProt Q9N623); assay: Inhibition of chloroquine-resistant Plasmodium falciparum Dd2 CRT expressed in Xenopus laevis oocyte assessed as inhibition of [3H]chloroquine uptake at 100 uM measured from 1 to 2 hrs
T1 sequence (whole entry): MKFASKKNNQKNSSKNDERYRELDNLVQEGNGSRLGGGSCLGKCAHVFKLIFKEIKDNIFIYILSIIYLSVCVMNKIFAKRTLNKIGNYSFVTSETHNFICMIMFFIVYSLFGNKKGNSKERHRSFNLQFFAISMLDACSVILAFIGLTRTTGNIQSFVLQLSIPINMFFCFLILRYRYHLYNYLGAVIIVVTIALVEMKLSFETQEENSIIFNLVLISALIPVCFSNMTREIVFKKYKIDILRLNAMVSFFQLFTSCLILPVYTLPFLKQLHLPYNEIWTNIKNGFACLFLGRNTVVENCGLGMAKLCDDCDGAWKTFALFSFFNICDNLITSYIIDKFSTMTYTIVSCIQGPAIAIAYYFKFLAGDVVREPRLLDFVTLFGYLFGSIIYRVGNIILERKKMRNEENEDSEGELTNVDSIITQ

[6] = tested on: Salmonella typhimurium; assay: Mutagenicity against Salmonella typhimurium TA100 assessed as revertants at 16 uM incubated for 90 mins followed by drug washout measured after 2 days relative to positive control; type: toxicity, organism-based; settings: salmonella enterica subsp. enterica serovar typhimurium
[7] = tested on: Salmonella typhimurium; assay: Mutagenicity against Salmonella typhimurium TA98 assessed as revertants at 8 uM incubated for 90 mins followed by drug washout measured after 2 days relative to positive control; type: toxicity, organism-based; settings: salmonella enterica subsp. enterica serovar typhimurium, 1.5 h
[8] = tested on: Salmonella typhimurium; assay: Mutagenicity against Salmonella typhimurium TA100 assessed as revertants at 4 uM incubated for 90 mins followed by drug washout measured after 2 days relative to positive control; type: toxicity, organism-based; settings: salmonella enterica subsp. enterica serovar typhimurium, 1.5 h
[9] = tested on: Salmonella typhimurium; assay: Mutagenicity against Salmonella typhimurium TA98 assessed as revertants at 4 uM incubated for 90 mins followed by drug washout measured after 2 days relative to positive control; type: toxicity, organism-based; settings: salmonella enterica subsp. enterica serovar typhimurium
[10] = tested on: Plasmodium falciparum; assay: Resistance ratio of IC50 for chloroquine-resistant Plasmodium falciparum K1 to IC50 for chloroquine-sensitive Plasmodium falciparum NF54; type: functional
[11] = tested on: Salmonella typhimurium; assay: Mutagenicity against Salmonella typhimurium TA98 assessed as revertants at 16 uM incubated for 90 mins followed by drug washout measured after 2 days relative to positive control; type: toxicity, organism-based; settings: salmonella enterica subsp. enterica serovar typhimurium
[12] = tested on: Salmonella typhimurium; assay: Mutagenicity against Salmonella typhimurium TA98 assessed as revertants at 1 uM incubated for 90 mins followed by drug washout measured after 2 days relative to positive control; type: toxicity, organism-based; settings: salmonella enterica subsp. enterica serovar typhimurium
[13] = tested on: Plasmodium falciparum; assay: Resistance ratio of IC50 for chloroquine-resistant Plasmodium falciparum W2 to IC50 for chloroquine-sensitive Plasmodium falciparum D10; type: functional
[14] = tested on: Salmonella typhimurium; assay: Mutagenicity against Salmonella typhimurium TA98 assessed as revertants at 2 uM incubated for 90 mins followed by drug washout measured after 2 days relative to positive control; type: toxicity, organism-based; settings: salmonella enterica subsp. enterica serovar typhimurium, 1.5 h
[15] = tested on: Salmonella typhimurium; assay: Mutagenicity against Salmonella typhimurium TA100 assessed as revertants at 1 uM incubated for 90 mins followed by drug washout measured after 2 days relative to positive control; type: toxicity, organism-based; settings: salmonella enterica subsp. enterica serovar typhimurium, 1.5 h
[16] = Cytotoxicity against mouse NIH3T3 cells after 24 hrs by neutral red dye uptake assay; type: cell-based; settings: read-out: TC50
[17] = tested on: Salmonella typhimurium; assay: Mutagenicity against Salmonella typhimurium TA100 assessed as revertants at 9 uM incubated for 90 mins followed by drug washout measured after 2 days relative to positive control; type: toxicity, organism-based; settings: salmonella enterica subsp. enterica serovar typhimurium, 1.5 h
[18] = tested on: Salmonella typhimurium; assay: Mutagenicity against Salmonella typhimurium TA100 assessed as revertants at 1.5 uM incubated for 90 mins followed by drug washout measured after 2 days relative to positive control; type: toxicity, organism-based; settings: salmonella enterica subsp. enterica serovar typhimurium, 1.5 h
[19] = tested on: Salmonella typhimurium; assay: Mutagenicity against Salmonella typhimurium TA98 assessed as revertants at 3 uM incubated for 90 mins followed by drug washout measured after 2 days relative to positive control; type: toxicity, organism-based; settings: salmonella enterica subsp. enterica serovar typhimurium, 1.5 h
[20] = tested on: Salmonella typhimurium; assay: Mutagenicity against Salmonella typhimurium TA98 assessed as revertants at 6 uM incubated for 90 mins followed by drug washout measured after 2 days relative to positive control; type: toxicity, organism-based; settings: salmonella enterica subsp. enterica serovar typhimurium, 1.5 h
[21] = tested on: Plasmodium falciparum; assay: Antiplasmodial activity against chloroquine-sensitive Plasmodium falciparum D10 infected in human RBC after 72 hrs by parasite lactate dehydrogenase assay; type: functional, organism-based; settings: D10, 72 h
[22] = tested on: Plasmodium falciparum; assay: Antiplasmodial activity against chloroquine-sensitive Plasmodium falciparum NF54 infected in human erythrocytes assessed as inhibition of [3H]hypoxanthine incorporation incubated for 48 hrs prior to [3H]hypoxanthine addition measured after 48 hrs by liquid scintillation counting; type: functional, organism-based
[23] = tested on: Salmonella typhimurium; assay: Mutagenicity against Salmonella typhimurium TA98 assessed as revertants at 1.5 uM incubated for 90 mins followed by drug washout measured after 2 days relative to positive control; type: toxicity, organism-based; settings: salmonella enterica subsp. enterica serovar typhimurium, 1.5 h
[24] = tested on: Plasmodium falciparum; assay: Antiplasmodial activity against chloroquine-resistant Plasmodium falciparum K1 infected in human erythrocytes assessed as inhibition of [3H]hypoxanthine incorporation incubated for 48 hrs prior to [3H]hypoxanthine addition measured after 48 hrs by liquid scintillation counting; type: functional, organism-based
[25] = tested on: Salmonella typhimurium; assay: Mutagenicity against Salmonella typhimurium TA98 assessed as revertants at 50 uM incubated for 90 mins followed by drug washout measured after 2 days relative to positive control; type: toxicity, organism-based; settings: salmonella enterica subsp. enterica serovar typhimurium, 1.5 h
[26] = tested on: Salmonella typhimurium; assay: Mutagenicity against Salmonella typhimurium TA100 assessed as revertants at 3 uM incubated for 90 mins followed by drug washout measured after 2 days relative to positive control; type: toxicity, organism-based; settings: salmonella enterica subsp. enterica serovar typhimurium, 1.5 h
[27] = tested on: Salmonella typhimurium; assay: Mutagenicity against Salmonella typhimurium TA100 assessed as revertants at 50 uM incubated for 90 mins followed by drug washout measured after 2 days relative to positive control; type: toxicity, organism-based; settings: salmonella enterica subsp. enterica serovar typhimurium
[28] = tested on: Salmonella typhimurium; assay: Mutagenicity against Salmonella typhimurium TA98 assessed as revertants at 25 uM incubated for 90 mins followed by drug washout measured after 2 days relative to positive control; type: toxicity, organism-based; settings: salmonella enterica subsp. enterica serovar typhimurium
[29] = tested on: Salmonella typhimurium; assay: Mutagenicity against Salmonella typhimurium TA98 assessed as revertants at 13 uM incubated for 90 mins followed by drug washout measured after 2 days relative to positive control; type: toxicity, organism-based; settings: salmonella enterica subsp. enterica serovar typhimurium, 1.5 h
[30] = tested on: Plasmodium falciparum; assay: Antiplasmodial activity against chloroquine-resistant Plasmodium falciparum W2 infected in human RBC after 72 hrs by parasite lactate dehydrogenase assay; type: functional, organism-based; settings: W2, 72 h
[31] = tested on: Salmonella typhimurium; assay: Mutagenicity against Salmonella typhimurium TA100 assessed as revertants at 6 uM incubated for 90 mins followed by drug washout measured after 2 days relative to positive control; type: toxicity, organism-based; settings: salmonella enterica subsp. enterica serovar typhimurium, 1.5 h
[32] = tested on: Salmonella typhimurium; assay: Mutagenicity against Salmonella typhimurium TA100 assessed as revertants at 13 uM incubated for 90 mins followed by drug washout measured after 2 days relative to positive control; type: toxicity, organism-based; settings: salmonella enterica subsp. enterica serovar typhimurium
[33] = tested on: Salmonella typhimurium; assay: Mutagenicity against Salmonella typhimurium TA100 assessed as revertants at 25 uM incubated for 90 mins followed by drug washout measured after 2 days relative to positive control; type: toxicity, organism-based; settings: salmonella enterica subsp. enterica serovar typhimurium
[34] = tested on: Salmonella typhimurium; assay: Mutagenicity against Salmonella typhimurium TA98 assessed as revertants at 66 uM incubated for 90 mins followed by drug washout measured after 2 days relative to positive control; type: toxicity, organism-based; settings: salmonella enterica subsp. enterica serovar typhimurium
[35] = tested on: Salmonella typhimurium; assay: Mutagenicity against Salmonella typhimurium TA100 assessed as revertants at 17 uM incubated for 90 mins followed by drug washout measured after 2 days relative to positive control; type: toxicity, organism-based; settings: salmonella enterica subsp. enterica serovar typhimurium
[36] = tested on: Salmonella typhimurium; assay: Mutagenicity against Salmonella typhimurium TA98 assessed as revertants at 33 uM incubated for 90 mins followed by drug washout measured after 2 days relative to positive control; type: toxicity, organism-based; settings: salmonella enterica subsp. enterica serovar typhimurium, 1.5 h
[37] = tested on: Salmonella typhimurium; assay: Mutagenicity against Salmonella typhimurium TA100 assessed as revertants at 33 uM incubated for 90 mins followed by drug washout measured after 2 days relative to positive control; type: toxicity, organism-based; settings: salmonella enterica subsp. enterica serovar typhimurium, 1.5 h
[38] = tested on: Salmonella typhimurium; assay: Mutagenicity against Salmonella typhimurium TA100 assessed as revertants at 66 uM incubated for 90 mins followed by drug washout measured after 2 days relative to positive control; type: toxicity, organism-based; settings: salmonella enterica subsp. enterica serovar typhimurium
[39] = tested on: Salmonella typhimurium; assay: Mutagenicity against Salmonella typhimurium TA98 assessed as revertants at 17 uM incubated for 90 mins followed by drug washout measured after 2 days relative to positive control; type: toxicity, organism-based; settings: salmonella enterica subsp. enterica serovar typhimurium

SMILES | CC50 at 24 h [1] [nM] | Activity [4] [%] | inhibition [5] [%] | Activity [7] [%] | Activity [8] [%] | Activity [9] [%] | Activity [14] [%] | CC50 at 24 h [16] [nM] | Activity [17] [%] | IC50 [21] [nM] | IC50 [22] [nM] | IC50 [24] [nM] | IC50 [30] [nM] | other results
Clc1cccc(C(Nc2ccnc3cc(Cl)ccc23)c2ccc(CN3CCCC3)cc2)c1 (racemic) | 31000 | 2 | 70 | 6 | 0 | 0 | 2 | 9000 | 5 | – | – | – | – | Activity [2]: 2%; Activity [3]: 2%; Activity [6]: 10%; Ratio IC50 [10]: 1.3; Activity [11]: 14%; Activity [12]: 2%; Ratio IC50 [13]: 1; Activity [15]: 5%
Fc1cc(C(Nc2ccnc3cc(Cl)ccc23)c2ccc(Cl)cc2)ccc1CN1CCCC1 (racemic) | 12000 | – | 70 | – | – | – | – | 25000 | – | 59 | 13 | 20 | 45 | Activity [18]: 12%; Activity [19]: 5%; Activity [20]: 3%; Activity [23]: 4%; Activity [25]: 8%; Activity [26]: 10%; Activity [27]: 11%; Activity [28]: 11%; Activity [29]: 3%; Activity [31]: 10%; Activity [32]: 11%; Activity [33]: 11%
Fc1cc(C(Nc2ccnc3cc(C(F)(F)F)ccc23)c2ccc(Cl)cc2)ccc1CN1CCCC1 (racemic) | 19000 | 4 | – | 1 | 3 | 1 | 1 | 34000 | 1 | 51 | 20 | 33 | 76 | Activity [34]: 8%; Activity [35]: 4%; Activity [36]: 4%; Activity [37]: 8%; Activity [38]: 1%; Activity [39]: 4%
